Tests used:
COX-1 = COX-1 (Ovis aries, UniProt P05979); test: COX inhibitor screening assay kit, COX-1; type: biochemical; settings: three separate experiments
Protocol: (§1) In test tubes, 25 mM Tris-HCl, pH 8.0, containing 5 mM EDTA, phenol, and 1 mM hematin was added. The test compounds were dissolved in DMSO and added in concentrations ranging from […] Dimethyl sulfoxide alone was applied to control test containers. COX-1 or COX-2 enzymes were added to the test tubes, which were then preincubated for 10 minutes at 37° C. The arachidonic acid substrate was added, and the tubes were further incubated at 37° C. for 2 minutes. The compound's immunochemical assay was used to calculate the amount of prostaglandin produced.
(§2) Three separate experiments were used to calculate the IC50 values. The selectivity index was calculated as follows: […]

COX-2 = COX-2 (Homo sapiens (Human), UniProt P35354); test: COX inhibitor screening assay kit, COX-2; type: biochemical; settings: for SI (selectivity index): calculated from COX-1 and COX-2 IC50; for IC50: three separate experiments
Protocol: as §1, §2

Sequence of COX-1 (P05979 25-600 limits assumed): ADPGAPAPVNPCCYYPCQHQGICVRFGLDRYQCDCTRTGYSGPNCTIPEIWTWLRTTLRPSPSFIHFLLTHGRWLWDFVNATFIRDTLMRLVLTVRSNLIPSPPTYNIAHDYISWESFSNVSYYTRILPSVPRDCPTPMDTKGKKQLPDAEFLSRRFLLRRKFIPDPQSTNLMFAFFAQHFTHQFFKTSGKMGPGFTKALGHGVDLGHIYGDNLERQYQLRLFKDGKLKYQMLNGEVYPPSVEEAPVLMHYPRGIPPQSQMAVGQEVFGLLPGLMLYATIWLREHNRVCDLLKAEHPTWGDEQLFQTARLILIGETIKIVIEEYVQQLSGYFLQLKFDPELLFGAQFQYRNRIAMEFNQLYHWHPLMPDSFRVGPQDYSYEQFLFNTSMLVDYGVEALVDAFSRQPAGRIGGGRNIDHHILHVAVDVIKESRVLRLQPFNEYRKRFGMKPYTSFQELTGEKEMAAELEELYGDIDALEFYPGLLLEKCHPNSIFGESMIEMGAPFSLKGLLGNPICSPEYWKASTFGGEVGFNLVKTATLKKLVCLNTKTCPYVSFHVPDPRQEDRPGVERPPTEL
Sequence of COX-2 (P35354 18-604): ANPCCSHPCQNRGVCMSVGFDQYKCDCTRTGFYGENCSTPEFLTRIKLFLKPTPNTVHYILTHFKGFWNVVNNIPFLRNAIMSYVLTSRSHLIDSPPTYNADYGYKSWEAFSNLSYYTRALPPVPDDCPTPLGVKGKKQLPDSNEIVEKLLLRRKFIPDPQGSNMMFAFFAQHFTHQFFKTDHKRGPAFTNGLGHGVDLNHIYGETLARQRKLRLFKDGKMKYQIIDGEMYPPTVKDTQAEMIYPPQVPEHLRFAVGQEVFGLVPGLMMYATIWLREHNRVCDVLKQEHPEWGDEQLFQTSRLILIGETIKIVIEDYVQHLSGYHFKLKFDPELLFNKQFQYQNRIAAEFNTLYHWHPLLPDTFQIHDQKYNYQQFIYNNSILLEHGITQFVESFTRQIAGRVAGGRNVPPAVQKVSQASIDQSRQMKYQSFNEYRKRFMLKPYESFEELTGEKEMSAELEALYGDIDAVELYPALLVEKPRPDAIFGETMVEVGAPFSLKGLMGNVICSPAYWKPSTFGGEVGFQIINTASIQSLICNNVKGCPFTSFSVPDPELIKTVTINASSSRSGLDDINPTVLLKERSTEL

| SMILES | IC50 (COX-1) [µM] | SI (selectivity index) (COX-2) | IC50 (COX-2) [µM] |
| --- | --- | --- | --- |
| COc1cccc(-c2nn(-c3ccccc3)cc2CN(C)CCc2cn[nH]c2)c1 [Compound 2, N-{[3-(3-methoxyphenyl)-1-phenyl-1H-pyrazol-4-yl]methyl}-N-methyl-2-(1H-pyrazol-4-yl)ethanamine] | 10.6 ± 0.33 | 132.64 | 0.08 ± 0.009 |
| COc1ccc(CN(Cc2ccc(F)cc2)CC2CCCO2)cc1CO (stereo not drawn) [Compound 1] | 7.62 ± 0.05 | 36.3 | 0.21 ± 0.01 |
| O=C(O)CC1COCCN1Cc1cccc(-c2ccccn2)c1 (stereo not drawn) [Compound 3, {4-[3-(2-pyridinyl)benzyl]-3-morpholinyl}acetic acid] | 11.5 ± 0.13 | 190.88 | 0.06 ± 0.075 |
| O=C(O)COc1ccc(Cl)cc1C1CC(=O)Nc2cc3[nH]ncc3cc21 (stereo not drawn) [Compound 4, [4-chloro-2-(7-oxo-5,6,7,8-tetrahydro-1H-pyrazole[4,3-g]quinoline-5-yl)phenoxy]acetic acid] | 9.19 ± 0.046 | 95.068 | 0.097 ± 0.015 |
